Data from US9695155B2, “Herbicidal substituted pyrimidinyloxy benzene compounds” (E. I. DU PONT DE NEMOURS AND COMPANY, priority 2013, dated 2017).

Assays:
Experiment in all cases: Test C preemergence
pigweed = type: in vivo, Amaranthus retroflexus; conditions: Amaranthus retroflexus, pre-emergence
Method in brief: (§1)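 Visual injury score versus untreated controls, 0 = no effect, 100 = complete control, taken 13 to 15 days after treatment in the greenhouse. Pre-emergence pots held loam/sand; post-emergence plants grew in sphagnum peat/vermiculite mix and were sprayed at the 1- to 4-leaf stage.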

morningglory = type: in vivo, Ipomoea coccinea; conditions: Ipomoea, pre-emergence
Method in brief: as §1

corn = type: in vivo, Zea mays; conditions: Zea mays, pre-emergence
Method in brief: as §1

blackgrass = type: in vivo, Alopecurus myosuroides; conditions: Alopecurus myosuroides, pre-emergence, preemergence, scale 0 (no effect) to 100 (complete control), read-out: Blackgrass plant response rating
Method in brief: as §1

Italian ryegrass = type: in vivo, Lolium multiflorum; conditions: Lolium multiflorum, pre-emergence
Method in brief: as §1

velvetleaf = type: in vivo, Abutilon theophrasti; conditions: Abutilon theophrasti, pre-emergence
Method in brief: as §1

oilseed rape = type: in vivo, Brassica napus; conditions: Brassica napus, pre-emergence
Method in brief: as §1

giant foxtail = type: in vivo, Setaria faberii; conditions: Setaria faberi, pre-emergence
Method in brief: as §1

yellow nutsedge = type: in vivo, Cyperus esculentus; conditions: Cyperus, pre-emergence
Method in brief: as §1

lambsquarters = type: in vivo, Chenopodium album; conditions: Chenopodium album, pre-emergence
Method in brief: as §1

large (Lg) crabgrass = type: in vivo, Digitaria sanguinalis; conditions: Digitaria sanguinalis, pre-emergence
Method in brief: as §1

ragweed = type: in vivo, Ambrosia elatior; conditions: Ambrosia artemisiifolia, pre-emergence
Method in brief: as §1

barnyardgrass = type: in vivo, Echinochloa crus-galli; conditions: Echinochloa crus-galli, pre-emergence
Method in brief: as §1

soybean = type: in vivo, Glycine max; conditions: Glycine max, pre-emergence
Method in brief: as §1

N#Cc1cccc(Oc2ncc(Cl)cn2)c1-n1cc(Br)cn1 [Compound 52, 2-(4-bromo-1H-pyrazol-1-yl)-3-[(5-chloro-2-pyrimidinyl)oxy]benzonitrile]
95%: pest or weed control at 62 g/ha (morningglory; 62 g ai/ha, preemergence, scale 0 (no effect) to 100 (complete control), read-out: Morningglory plant response rating) | pest or weed control at 125 g/ha (ragweed; 125 g ai/ha, preemergence, scale 0 (no effect) to 100 (complete control), read-out: Ragweed plant response rating) | pest or weed control at 62 g/ha (barnyardgrass; 62 g ai/ha, preemergence, scale 0 (no effect) to 100 (complete control), read-out: Barnyardgrass plant response rating)
0%: pest or weed control at 31 g/ha (yellow nutsedge; Preemergence, 31 g ai/ha, scale 0 to 100, 0 no effect, 100 complete control, read-out: Plant response rating, Nutsedge, Yellow)
40%: pest or weed control at 125 g/ha (yellow nutsedge; 125 g ai/ha, preemergence, scale 0 (no effect) to 100 (complete control), read-out: Nutsedge, Yellow plant response rating)
45%: pest or weed control at 250 g/ha (yellow nutsedge; 250 g ai/ha, preemergence, scale 0 (no effect) to 100 (complete control), read-out: Nutsedge, Yellow plant response rating)
55%: pest or weed control at 31 g/ha (morningglory; Preemergence, 31 g ai/ha, scale 0 to 100, 0 no effect, 100 complete control, read-out: Plant response rating, Morningglory) | pest or weed control at 62 g/ha (Italian ryegrass; 62 g ai/ha, preemergence, scale 0 (no effect) to 100 (complete control), read-out: Ryegrass, Italian plant response rating)
60%: plant injury at 125 g/ha (corn; 125 g ai/ha, preemergence, scale 0 (no effect) to 100 (complete control), read-out: Corn plant response rating)
75%: pest or weed control at 31 g/ha (velvetleaf; Preemergence, 31 g ai/ha, scale 0 to 100, 0 no effect, 100 complete control, read-out: Plant response rating, Velvetleaf)
85%: pest or weed control at 62 g/ha (blackgrass; 62 g ai/ha) | plant injury at 62 g/ha (soybean; 62 g ai/ha, preemergence, scale 0 (no effect) to 100 (complete control), read-out: Soybean plant response rating)
50%: pest or weed control at 31 g/ha (barnyardgrass; Preemergence, 31 g ai/ha, scale 0 to 100, 0 no effect, 100 complete control, read-out: Plant response rating, Barnyardgrass)
100%: pest or weed control at 62 g/ha (pigweed; 62 g ai/ha, preemergence, scale 0 (no effect) to 100 (complete control), read-out: Pigweed plant response rating) | pest or weed control at 125 g/ha (pigweed; 125 g ai/ha, preemergence, scale 0 (no effect) to 100 (complete control), read-out: Pigweed plant response rating) | pest or weed control at 250 g/ha (pigweed; 250 g ai/ha, preemergence, scale 0 (no effect) to 100 (complete control), read-out: Pigweed plant response rating) | pest or weed control at 31 g/ha (pigweed; Preemergence, 31 g ai/ha, scale 0 to 100, 0 no effect, 100 complete control, read-out: Plant response rating, Pigweed) | pest or weed control at 125 g/ha (morningglory; 125 g ai/ha, preemergence, scale 0 (no effect) to 100 (complete control), read-out: Morningglory plant response rating) | pest or weed control at 250 g/ha (morningglory; 250 g ai/ha, preemergence, scale 0 (no effect) to 100 (complete control), read-out: Morningglory plant response rating) | pest or weed control at 62 g/ha (velvetleaf; 62 g ai/ha, preemergence, scale 0 (no effect) to 100 (complete control), read-out: Velvetleaf plant response rating) | pest or weed control at 125 g/ha (velvetleaf; 125 g ai/ha, preemergence, scale 0 (no effect) to 100 (complete control), read-out: Velvetleaf plant response rating) | pest or weed control at 250 g/ha (velvetleaf; 250 g ai/ha, preemergence, scale 0 (no effect) to 100 (complete control), read-out: Velvetleaf plant response rating) | plant injury at 62 g/ha (oilseed rape; 62 g ai/ha, preemergence, scale 0 (no effect) to 100 (complete control), read-out: Oilseed Rape plant response rating) | plant injury at 125 g/ha (oilseed rape; 125 g ai/ha, preemergence, scale 0 (no effect) to 100 (complete control), read-out: Oilseed Rape plant response rating) | plant injury at 250 g/ha (oilseed rape; 250 g ai/ha, preemergence, scale 0 (no effect) to 100 (complete control), read-out: Oilseed Rape plant response rating) | plant injury at 31 g/ha (oilseed rape; Preemergence, 31 g ai/ha, scale 0 to 100, 0 no effect, 100 complete control, read-out: Plant response rating, Oilseed Rape) | pest or weed control at 62 g/ha (giant foxtail; 62 g ai/ha, preemergence, scale 0 (no effect) to 100 (complete control), read-out: Foxtail, Giant plant response rating) | pest or weed control at 125 g/ha (giant foxtail; 125 g ai/ha, preemergence, scale 0 (no effect) to 100 (complete control), read-out: Foxtail, Giant plant response rating) | pest or weed control at 250 g/ha (giant foxtail; 250 g ai/ha, preemergence, scale 0 (no effect) to 100 (complete control), read-out: Foxtail, Giant plant response rating) | pest or weed control at 31 g/ha (giant foxtail; Preemergence, 31 g ai/ha, scale 0 to 100, 0 no effect, 100 complete control, read-out: Plant response rating, Foxtail, Giant) | pest or weed control at 62 g/ha (lambsquarters; 62 g ai/ha, preemergence, scale 0 (no effect) to 100 (complete control), read-out: Lambsquarters plant response rating) | pest or weed control at 125 g/ha (lambsquarters; 125 g ai/ha, preemergence, scale 0 (no effect) to 100 (complete control), read-out: Lambsquarters plant response rating) | pest or weed control at 250 g/ha (lambsquarters; 250 g ai/ha, preemergence, scale 0 (no effect) to 100 (complete control), read-out: Lambsquarters plant response rating) | pest or weed control at 31 g/ha (lambsquarters; Preemergence, 31 g ai/ha, scale 0 to 100, 0 no effect, 100 complete control, read-out: Plant response rating, Lambsquarters) | pest or weed control at 62 g/ha (large (Lg) crabgrass; 62 g ai/ha, preemergence, scale 0 (no effect) to 100 (complete control), read-out: Crabgrass, Large plant response rating) | pest or weed control at 125 g/ha (large (Lg) crabgrass; 125 g ai/ha, preemergence, scale 0 (no effect) to 100 (complete control), read-out: Crabgrass, Large plant response rating) | pest or weed control at 250 g/ha (large (Lg) crabgrass; 250 g ai/ha, preemergence, scale 0 (no effect) to 100 (complete control), read-out: Crabgrass, Large plant response rating) | pest or weed control at 31 g/ha (large (Lg) crabgrass; Preemergence, 31 g ai/ha, scale 0 to 100, 0 no effect, 100 complete control, read-out: Plant response rating, Crabgrass, Large) | pest or weed control at 250 g/ha (ragweed; 250 g ai/ha, preemergence, scale 0 (no effect) to 100 (complete control), read-out: Ragweed plant response rating) | pest or weed control at 125 g/ha (barnyardgrass; 125 g ai/ha, preemergence, scale 0 (no effect) to 100 (complete control), read-out: Barnyardgrass plant response rating) | pest or weed control at 250 g/ha (barnyardgrass; 250 g ai/ha, preemergence, scale 0 (no effect) to 100 (complete control), read-out: Barnyardgrass plant response rating)
5%: plant injury at 62 g/ha (corn; 62 g ai/ha, preemergence, scale 0 (no effect) to 100 (complete control), read-out: Corn plant response rating) | Corn plant response rating (crop injury, 0 = no effect, 100 = complete kill) at 31 g/ha (corn; Preemergence, 31 g ai/ha, scale 0 to 100, 0 no effect, 100 complete control) | pest or weed control at 31 g/ha (Italian ryegrass; Preemergence, 31 g ai/ha, scale 0 to 100, 0 no effect, 100 complete control, read-out: Plant response rating, Ryegrass, Italian) | plant injury at 31 g/ha (soybean; Preemergence, 31 g ai/ha, scale 0 to 100, 0 no effect, 100 complete control, read-out: Plant response rating, Soybean)
80%: pest or weed control at 125 g/ha (Italian ryegrass; 125 g ai/ha, preemergence, scale 0 (no effect) to 100 (complete control), read-out: Ryegrass, Italian plant response rating)
10%: pest or weed control at 62 g/ha (yellow nutsedge; 62 g ai/ha, preemergence, scale 0 (no effect) to 100 (complete control), read-out: Nutsedge, Yellow plant response rating)
70%: plant injury at 250 g/ha (corn; 250 g ai/ha, preemergence, scale 0 (no effect) to 100 (complete control), read-out: Corn plant response rating)
90%: pest or weed control at 125 g/ha (blackgrass; 125 g ai/ha) | pest or weed control at 250 g/ha (blackgrass; 250 g ai/ha) | pest or weed control at 250 g/ha (Italian ryegrass; 250 g ai/ha, preemergence, scale 0 (no effect) to 100 (complete control), read-out: Ryegrass, Italian plant response rating) | pest or weed control at 62 g/ha (ragweed; 62 g ai/ha, preemergence, scale 0 (no effect) to 100 (complete control), read-out: Ragweed plant response rating) | pest or weed control at 31 g/ha (ragweed; Preemergence, 31 g ai/ha, scale 0 to 100, 0 no effect, 100 complete control, read-out: Plant response rating, Ragweed) | plant injury at 125 g/ha (soybean; 125 g ai/ha, preemergence, scale 0 (no effect) to 100 (complete control), read-out: Soybean plant response rating) | plant injury at 250 g/ha (soybean; 250 g ai/ha, preemergence, scale 0 (no effect) to 100 (complete control), read-out: Soybean plant response rating)
